Values joined by “and” are separate entries in the source; they are usually repeats but may differ in a detail not shown here. Equal values may be shown once.
Key:
[1] = tested on: clone DC6; test: Parasite growth inhibition, clone DC6 (PmV-GFP, native promoter)
Protocol: (§1) Growth impairment of parasites in culture was tested as follows. Asynchronous erythrocyte cultures of Plasmodium falciparum strain 3D7 were initiated at a starting parasitemia of 0.2–0.5% in the presence of titration curves of the PmV inhibitors generated in this work. […] Cultures, live or fixed, were analyzed at day 3 and/or 4 after initiation, approximately~ 2 cell cycles of 3D7 strain. Parasitemia was measured by flow cytometry analysis of parasitized cells stained with 0.4 μg/ml Acridine Orange or 1 μM Topro 3 (Life Technology Invitrogen), using BD Fortessa or FACS Calibur instruments.
(§2) DC6 clone expresses PmV-GFP chimera under regulation of the native promoter [15]; G6 clone, the PmV-GFP-DD chimera under regulation of the native promoter (this paper) and #3 clone (episomally expressing PmV-GFP chimera under Hsp86-5', a strong and constitutive promoter) [15]. […] (B) Growth inhibition curves of parasites expressing different levels of PmV: 3D7 (blue dots and line), DC6 (green dots and line), G6 (PmV knock-down) (red dots and line) and #3 (Overexpressing PmV) (purple dots and line) were analysed in parallel. Growth inhibition was measured in triplicates. Dots represent actual data, lines the sigmoidal fitting obtained by non-linear regression analysis. […] Error bars show the standard deviation of the data.

[2] = tested on: HRPII-GFP PExEl-dependent secretion; test: In vivo inhibition of PExEl export, live microscopy of HRPII-GFP clone; assay type: cell-based, Plasmodium falciparum; details: 20 μM, 27 h, ring to trophozoite stages
Protocol: Parasites were imaged live or fixed. Fixation in 4% formaldehyde and 0.0075% glutaraldehyde, cell permeabilization, antibody incubation, and mounting were as previously described. Before imaging of HRPII-GFP clone, we treated with Compound 29 highly synchronized parasites at late trophozoite stage with inhibitors for 27 h, and then analyzed the distribution of the exported probe in newly invaded red blood cells. Images were acquired using a fluorescence microscope (BX51 Olympus). Live parasites were counter-stained using the nuclear dye Hoechst 33342 (Life Technologies—Molecular Probes).
Fig 16 Inhibition results in impairment of the PExEl secretion. (A) Microscopy analysis of the distribution of the PExEl-export fluorescent probe. Live parasites expressing HRPII-GFP, used as a probe for PExEl secretion, are imaged in the presence of Hoechst nuclear staining. Bright field (grey scale), nuclei (blue channel), HRPII-GFP (green) and the merged image of the fluorescent channels are presented from left to right. (panel a) untreated culture; (b) mock DMSO-treated culture; (c-f) culture treated with 20 μM 29 solubilized in DMSO (c) mid ring, (d) late-ring, (e) early-trophozoite, (f) late-trophozoite. Bar is 2 μm. […]

[3] = pH 7.4
[4] = tested on: clone #3 (Overexpressing PmV); test: Parasite growth inhibition, clone #3 (overexpressing PmV-GFP)
Protocol: as §1, §2

[5] = target: T1, Plasmepsin V (PmV) (Plasmodium falciparum, UniProt Q8I6Z5); test: PmV inhibition, fluorimetric PExEl cleavage assay; assay type: biochemical; details: for IC50: 3 μM HRPII-PExEl substrate, averages of not less than three inhibition curves, read-out: IC50
T1 construct: PmV was purified directly from parasites; made in house
T1 sequence (Q8I6Z5 whole entry): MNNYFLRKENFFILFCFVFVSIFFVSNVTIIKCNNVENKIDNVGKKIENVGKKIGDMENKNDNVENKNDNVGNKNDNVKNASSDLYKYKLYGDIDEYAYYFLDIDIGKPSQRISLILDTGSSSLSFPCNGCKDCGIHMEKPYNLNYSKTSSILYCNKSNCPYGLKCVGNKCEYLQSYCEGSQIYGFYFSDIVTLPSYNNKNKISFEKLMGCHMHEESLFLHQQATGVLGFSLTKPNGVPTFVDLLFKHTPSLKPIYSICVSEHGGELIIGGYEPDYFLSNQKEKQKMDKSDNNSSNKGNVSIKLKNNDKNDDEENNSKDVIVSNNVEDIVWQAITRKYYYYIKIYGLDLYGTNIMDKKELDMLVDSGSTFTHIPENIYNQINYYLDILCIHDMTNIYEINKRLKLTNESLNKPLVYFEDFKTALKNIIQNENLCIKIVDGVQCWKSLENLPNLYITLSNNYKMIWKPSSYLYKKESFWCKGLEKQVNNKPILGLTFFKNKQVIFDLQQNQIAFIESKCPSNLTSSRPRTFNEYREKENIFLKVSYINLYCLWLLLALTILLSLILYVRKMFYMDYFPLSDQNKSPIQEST
Protocol: Saponin was added to culture to a final 0.05%; parasites were recovered via centrifugation at 4°C after 5 min of incubation on ice; parasite pellets were then washed twice in cold PBS and either immediately lysed or stored at -80°C until lysis. Parasites were lysed via three pulses of ultra-sonication of 10 sec duration, in PBS containing 0.5% Triton-X100 (TX-100). […] Quick washes of the resin were performed either in batches, or over columns, to remove unbound cellular material (four with ice-cold 0.5% TX-100 in PBS and a final one with cold PBS). Resin-bound PmV was stored in PBS at 4°C and used within 2–3 weeks, larger batches had Glycerol added to them, up to 10%, and were stored at -20°C for up to 5 months. […] Quality and purity of PmV batches were routinely confirmed by protein electrophoresis. Quantification of PmV was performed via densitometry analysis of stained protein SDS-PAGE gels relative to BSA standard curves.
PExEl cleavage activity was monitored by fluorimetric measurement of PExEl cleavage, as previously reported. […] PmV activity was performed at 37°C in 50 mM Tris-Maleate, pH 6.5, 50 mM NaCl, 0.05% TX-100, 2 mM DTT. Assays were routinely conducted in triplicate. Bead-bound enzyme was added to the reaction using ‘end-cut’ micropipette tips in order to facilitate sampling the suspension.
Inhibitory activities were measured in the presence of a substrate concentration of 3 μM by serial dilution of each compound in triplicates. […] Titration curves of the inhibitors were routinely composed of eleven points from 10 μM to 0.1 pM. PmV concentration was kept in the order of low picomolar (≤10 pM). […] Analysis of the half inhibitory activity (IC50) was performed by sigmoidal interpolation of the starting velocities of the hydrolytic reactions for each condition. Starting velocities were calculated on the initial linear range of the product progression curves. […] Data are presented with error bars indicating the standard deviation of three independent activity curves.

[6] = tested on: clone G6 (PmV knock-down); test: Parasite growth inhibition, clone G6 (PmV-GFP-DD, PmV knock-down); details: clone G6, absence of Shield-1
Protocol: as §1
(B) Growth inhibition curves of parasites expressing different levels of PmV: 3D7 (blue dots and line), DC6 (green dots and line), G6 (PmV knock-down) (red dots and line) and #3 (Overexpressing PmV) (purple dots and line) were analysed in parallel. Growth inhibition was measured in triplicates. Dots represent actual data, lines the sigmoidal fitting obtained by non-linear regression analysis. […] Error bars show the standard deviation of the data.

[7] = tested on: HRPII PExEl processing; test: HRPII PExEl processing, western blot; assay type: cell-based, Plasmodium falciparum; details: 20 μM, about 27 h, 3D7
Protocol: Protein analyses to detect PmV, HRPII and BiP via stained protein gels and blots, densitometry, antibody detection or HRP-conjugated Streptavidin, were conducted as previously described.
Fig 16 Inhibition results in impairment of the PExEl secretion. (A) Microscopy analysis of the distribution of the PExEl-export fluorescent probe. Live parasites expressing HRPII-GFP, used as a probe for PExEl secretion, are imaged in the presence of Hoechst nuclear staining. Bright field (grey scale), nuclei (blue channel), HRPII-GFP (green) and the merged image of the fluorescent channels are presented from left to right. (panel a) untreated culture; (b) mock DMSO-treated culture; (c-f) culture treated with 20 μM 29 solubilized in DMSO (c) mid ring, (d) late-ring, (e) early-trophozoite, (f) late-trophozoite. Bar is 2 μm. Impairment of HRPII-GFP PExEl-dependent export is observed in these representative images of live parasites and the GFP signal appears concentrated in regions of immediate proximity to the nuclei. […] (B) HRPII PExEl processing is inhibited by Compound 29. Western blot analysis of HRPII contained in parasites after saponin treatment. Arrows show the pro-form (p) and the mature (m) protein HRPII. 3D7 culture was incubated as described in Materials and Methods with 20 μM Compound 29 for about 27 h.

[8] = tested on: Plasmodium falciparum strain 3D7; test: Parasite growth inhibition by flow cytometry, strain 3D7; assay type: cell-based
[9] = tested on: PmV; details: different substrate at […], different buffer; ref [19], [20]; read-out: IC50, published value; cited from earlier work

Row | Compound | IC20 [1] | IC50 [1] | IC80 [1] | effect on HRPII-GFP PExEl-dependent secretion [2] | logD [3] | IC20 [4] | IC50 [4] | IC80 [4] | IC50 increase compared to Compound 13a [5] | Ki [5] | IC50 [5] | IC20 [6] | IC50 [6] | IC80 [6] | effect on natural processing of HRPII [7] | LD50 growth inhibition ([8]; asynchronous 3D7 cultures, about 4 days, 0.195–200 μM, flow cytometry) | IC20 ([8]; strain 3D7, parental line) | IC50 ([8]; strain 3D7, parental line) | IC80 ([8]; strain 3D7, parental line) | IC50 [9]
1 | CC(C)C[C@H](NC(=O)[C@@H](N)CCCCN)C(=O)N[C@@H](CC(C)C)C(O)CN[C@@H](C)C(=O)N[C@@H](CCC(=O)O)C(N)=O (mixture of isomers) [Compound 29] | 12.8 µM | 18.5 µM | 27.1 µM | impairment of HRPII-GFP PExEl-dependent secretion was observed | -5.99 | 25.1 µM | 27.5 µM | 30.1 µM | 8 fold | 1.06 µM | 1.97 µM | 7.68 µM | 12.5 µM | 20.2 µM | inhibited | ~ 15 μM and 15.2 μM | 14 µM | 17.9 µM | 22.7 µM | 
2 | CC(C)C[C@H](NC(=O)[C@@H](NC(=O)[C@H](CCCNC(=N)N)NS(=O)(=O)Cc1ccccc1)C(C)C)[C@@H](O)CC(=O)NCCc1ccccc1 [WEHI916, reference compound] |  |  |  |  |  |  |  |  |  |  | 0.0324 µM |  |  |  |  |  |  |  |  | 0.019 to 0.02 µM

From article PMC4643876, “Picomolar Inhibition of Plasmepsin V, an Essential Malaria Protease, Achieved Exploiting the Prime Region” (PLoS ONE, 2015)
